According to US20160102067A1, “OXIRAN AMINES” (V-BIOTEK HOLDING APS, priority 2012, published 2016):
Values after ≈ are worked out from the molar mass of the structure shown.

Legend:
[1] = tested on: erythrocytic stages of P. falciparum; experiment: [3H]-hypoxanthine incorporation assay with extract, P. falciparum strain K1; type: cell-based, Plasmodium falciparum; conditions: extract at a dilution of 160 times
Description: In vitro activity of extract dilutions were tested against erythrocytic stages of P. falciparum by a modified [3H]-hypoxanthine incorporation assay (Scala, F., Fattorusso, E., Menna, M., Taglialatela-Scafati, O., Tiemey, M., Kaiser, M., Tasdemir, D., 2010. Bromopyrrole alkaloids as lead compounds against protozoan parasites. Marine Drugs 8, 2162-2174.) using the […] strain K1. The standard drug used as a positive control was amodiaquine.
Briefly, parasite cultures incubated in RPMI 1640 medium with 5% Albumax (without hypoxanthine) were exposed to serial extract dilutions in microtiter plates. After 48 h of incubation at 37 ° C. in a reduced oxygen atmosphere, 0.5 μCi 3H-hypoxanthine was added to each well. Cultures were incubated for a further 24 h before they were harvested onto glass-fiber filters and washed with distilled water. The radioactivity was counted using a Betaplate™ liquid scintillation counter (Wallac, Zurich, Switzerland). The results were recorded as counts per minute (CPM) per well at each drug concentration and expressed as percentage of the untreated controls. IC50 values were calculated from graphically plotted dose-response curves. Each IC50 value obtained is the mean of at least two separate experiments performed in duplicate (the variation is maximum 20%).

[2] = tested on: P. falciparum; experiment: [3H]-hypoxanthine incorporation, growth rate of P. falciparum (Example 7); type: cell-based, Plasmodium falciparum; conditions: [3H]-hypoxanthine incorporation after 48 hrs, 3 fold dilution series, FIG. 15
Description: 15.3 mg 2-Methyl-3-nonyloxiran-2-amine obtained in example 6 was mixed with 100 μl DMSO (Dimethyl sulfoxid) to obtain a stock solution. A first solution was prepared by mixing 100 uL of the stock solution with 400 uL of parasite media. Subsequently this solution was diluted in 15 dilution series, each dilution serie being diluted 3 fold. The same protecol as used in example 6 was applied for this experiment.
Specifically, the incorporation of [3H]-hypoxanthine was used as a measure for the life conditions of P. falciparum. Parasites were syncronised to ring stages by […] treatment and then incubated at 0.3% parasitemia at 5% haematocrit in 100 uL of growth medium containing [3H]-hypoxanthine over one cycle of replication, i.e. 48 hrs. Each experiment was performed in triplets.

[3] = tested on: MSSA (meticillin-sensitive staphylococcus aureusis); experiment: MIC determination for MSSA; type: cell-based; conditions: Staphylococcus aureus, dilution series, read-out: MIC (Minimum Inhibitory Concentration)
Description: (§1) 15.3 mg 2-Methyl-3-nonyloxiran-2-amine obtained in example 6 was mixed with 100 μl DMSO (Dimethyl sulfoxid) to obtain a stock solution. The stock solution was used for determining the MIC (Minimum Inhibitory Concentration) for MRSA (meticillin-resistant staphylococcus aureusis) and MSSA (meticillin-sensitive staphylococcus aureusis).

[4] = tested on: MRSA (meticillin-resistant staphylococcus aureusis); experiment: MIC determination for MRSA; type: cell-based; conditions: Staphylococcus aureus, dilution series, read-out: MIC (Minimum Inhibitory Concentration)
Description: as §1

SMILES: CCN(CC)Cc1cc(Nc2ccnc3cc(Cl)ccc23)ccc1O [amodiaquine]
- [3H]-hypoxanthine incorporation value [1]: 47.5 CPM

SMILES: CCCCCCCCCC1OC1(C)N (stereo not shown) [2-Methyl-3-nonyloxiran-2-amine]
- growth rate of P. Falciparum [2]: concentration dependent inhibition
- MIC [3]: 9.6 mg/mL (≈ 48.2 mM)
- MIC [4]: 38.3 mg/mL (≈ 192 mM)
